Melting point data for 89 compounds are collected here from a melting point compilation (Tetko et al.; mined from patent text by program, amines drawn as free bases though some values may be those of a salt).

Each structure is given as a SMILES string.

On to `COc1ccc(C(=O)CCCN2CCC(OC(=O)c3cc(Cl)c(N)c4c3OCC4)CC2)cc1OC`, for which the melting point was found to be 156 °C.

Consider `COn1c(-c2ccccc2)nc2cnc3ccccc3c21`, for which the melting point lay within 194 to 195 °C.

With `O=C1N(c2cccc(C(F)(F)F)c2)CC(CCl)C1(Cl)Cl` (centres undefined), the melting point was 87 to 100 °C.

The compound `OC(Cn1ccnc1)c1cccnc1` (centres undefined) yielded a melting point of 119 to 121 °C.

The compound `Brc1ccc(-c2nc(-c3cccc(Br)c3)n(-c3ccccc3)n2)cc1` came in with a melting point of 129 to 131 °C.

In turn, `CC(=O)N(OC(=O)NC(C)(C)C)C(=O)NC(C)(C)C` came in with a melting point of 111 to 113 °C.

`O=[N+]([O-])c1cccnc1N1CCc2ccccc2CC1` yielded a melting point of 129 to 136 °C.

In turn, `N#Cc1c[nH]c2cc(F)c(OCc3ccccc3)cc2c1=O` had a melting point of more than 250 °C.

Compound `Cc1ccccc1COCC1OC(n2cc(C(F)(F)F)c(=O)[nH]c2=O)CC1O` (centres undefined) displayed a melting point of 178 to 179 °C.

On to `CCc1ccnc(C(=O)c2[nH]c3ccc(CC)cc3c2CC(=O)O)c1`, for which the melting point came out at 206 °C.

For `Cn1ccc2ccc(CO)cc21`, the melting point fell in the range of 47 to 49 °C.

In the case of `COc1nc(Cc2ccccc2NS(=O)(=O)C(F)(F)F)nc(OC)n1`, the melting point was 101 to 108 °C.

Compound `COC(=O)c1cc2cc(C)ccc2s1` yielded a melting point of 78 to 79 °C.

With `O=C(O)CNc1ccccc1F`, the melting point was 126 to 127 °C.

Regarding `CNS(=O)(=O)C1CN(C)c2cc(F)ccc2C1=O` (centres undefined), the melting point lay in the range of 134 to 136 °C.

Regarding `CC1(C)O[C@@H]2[C@H](O1)[C@@H](CO)O[C@H]2n1cnc2c(N)nc(I)nc21`, the melting point lay in the range of 185 to 187 °C.

`N#CCN1C(=O)COc2ccc([N+](=O)[O-])cc21` came in with a melting point of 173 °C.

Compound `Cc1nc2c(O[C@@H]3c4ccccc4C[C@H]3OS(C)(=O)=O)cccn2c1C=O` (relative stereo) had a melting point of 158 to 160 °C.

Consider `Cc1sc(S(N)(=O)=S)cc1C(C)O` (centres undefined), for which the melting point lay within 100 to 102 °C.

In turn, `NC(=O)c1ccc(CCN2CCN(Cc3ccccc3Cl)CC2)cc1` came in with a melting point of 170 to 173 °C.

Turning to `CCOCc1nc2c(N)nc3cc(-c4cccnc4)ccc3c2n1CC(C)(C)O`, the melting point was 197 to 199 °C.

As to `CCc1ccc2nc(C)[nH]c2c1N1CC(CI)OC1=O` (centres undefined), the melting point fell in the range of 143 to 144 °C.

As for `CN1CCSC1=NCN1C(=O)CCC1=O`, the melting point is 142 to 144 °C.

Compound `COC(=O)COc1ccc(SCc2cc(-c3ccc(Cl)cc3)on2)c2c1CCCO2` gave a melting point of 131 to 133 °C.

As to `O=[N+]([O-])c1ccc(C=Cc2ccncn2)cc1`, the melting point is 213 to 215 °C.

`CC(C)c1cccc(S(=O)(=O)n2c(CCCC(=O)O)cc3cc(Cl)ccc32)c1` gave a melting point of 128 °C.

On to `COC(=O)NCCCCn1c(=O)c2c(C)nc3cccc1n32`, for which the melting point lay in the range of 175 to 176 °C.

`COc1ccc(-c2ccc3c(c2)CCC3=O)c2c1OCCO2` yielded a melting point of 168 °C.

Compound `N#CCc1ccc(CN2CCN(c3ccc(F)cc3)CC2)cc1` gave a melting point of 111 to 113 °C.

`O=C(O)[C@@H]1CCCN1C(=O)c1cc2cc3c(cc2c2cc(O)ccc12)OCO3` had a melting point of 230 to 231 °C.

Regarding `N#CCCNC(=O)c1cccc(-c2ccc3c(c2)C(c2cc(Cl)ccc2Cl)CC3)c1` (centres undefined), the melting point is 135 to 136 °C.

Regarding `COC(=O)c1ccc(N2CCNCC2)cc1`, the melting point was 95 to 97 °C.

`COc1cc(Cl)c(-n2c(=O)cc(C(F)(F)F)n(C)c2=O)c2sc(Cl)nc12` had a melting point of 185 to 187 °C.

On to `O=C(O)Cc1c(C(=O)O)c2cc(Oc3ccc(OC(F)(F)F)cc3)ccc2n1-c1ccc(N2CCCCC2)cc1`, for which the melting point was more than 200 °C.

With `Cc1cc2ccccc2n1-c1ccc(F)cc1`, the melting point came out at 43 °C.

With `N#Cc1nc(O)c(-c2cc(O)c(O)c([N+](=O)[O-])c2)nc1C#N`, the melting point is more than 300 °C.

In the case of `CC(C)C(NC(=O)OC(C)(C)C)C(=O)OC(O)C(=O)C1C(C)CC2C3CC(F)C4=CC(=O)C=CC4(C)C3C(O)CC21C` (centres undefined), the melting point lay in the range of 166 to 168 °C.

`Cc1nc(-c2ccc(Cl)cc2)c(CBr)o1` gave a melting point of 75 to 76 °C.

In turn, `COc1ccc(C(=O)N(C(=O)c2ccc(OC)cc2)c2nc3ccc(N4CCN(C)CC4)cc3c(NCc3ccccc3)c2C#N)cc1` yielded a melting point of 176 °C.

The compound `Cc1cc(N(C)CC(=O)N2CCN(Cc3ccccc3)CC2)ccc1Oc1ccc(NC(=O)c2ccc(C(F)(F)F)cc2)cn1` registered a melting point of 112 to 113 °C.

Regarding `COC(=O)CCc1cc(F)ccc1C(=O)CCCNC(C)=O`, the melting point lay within 39 to 40 °C.

Compound `CCOC(=O)c1cn(-c2ccc(C(F)(F)F)cn2)nc1C(C)CC` (centres undefined) returned a melting point of 63 to 64 °C.

`CC(=O)Nc1nc(C)n2c1CN=C(c1ccccc1F)c1cc(Cl)ccc1-2` displayed a melting point of 175 to 178 °C.

Compound `CCCCCCCCCCCCC(=O)c1c[nH]c(C2(OC)OCCSSO2)c1` (centres undefined) had a melting point of 77 to 78 °C.

Regarding `CCNC(=O)c1cc([Si](C)(C)C)sc1[Si](C)(C)C`, the melting point was in the range of 106 to 111 °C.

Take `CC1=C(C(=O)OC(C)(C)C)C(c2ccccc2F)C(C(=O)OC(C)(C)C)=C(C)N1`: the melting point was in the range of 201 to 202 °C.

Regarding `Cc1cc2c(cc1[N+](=O)[O-])C(C)(C)CCC2(C)C`, the melting point is 143 to 144 °C.

As to `CC(=O)Nc1ccc(C(=O)c2cc(-c3ccc(S(C)(=O)=O)cc3)c(N3CCOCC3)s2)cc1`, the melting point was 129 °C.

The compound `CC(C)(C)NC(=O)[C@@H]1C[C@@H]2CCCC[C@@H]2CN1C[C@H]1OC(=O)N[C@H]1Cc1ccccc1` displayed a melting point of 202 to 204 °C.

Consider `CCCCC#Cc1nc(N)n2nc(-c3ccco3)nc2n1`, for which the melting point fell in the range of 188 to 191 °C.

`CC(C)(C)Sc1c(CC(C)(C)C(=O)O)n(Cc2ccc(Cl)cc2)c2ccc(OCc3ccccn3)cc12` returned a melting point of 189 to 190 °C.

Consider `O=[N+]([O-])c1cccc(Cl)c1NCc1ccccc1Cl`, for which the melting point lay in the range of 69 to 71 °C.

`O=C(c1ccc(-c2ccc3nnn(Cc4ccc5ncccc5c4)c3n2)cc1)N1CCC(N2CCCC2)CC1` yielded a melting point of 125 to 127 °C.

Turning to `CS(=O)c1ccc(Nc2ccn(-c3ccccc3)n2)cc1` (centres undefined), the melting point lay in the range of 123 to 124 °C.

On to `COCCc1nc2c(N)nc3cc(-c4ccccc4)ccc3c2n1CC(C)(C)O`, for which the melting point lay in the range of 226 to 227 °C.

Turning to `COc1ccc(CC(=O)NC(NC(=NC#N)Nc2cc(C)ccc2C)C(C)(C)C)cc1OC` (centres undefined), the melting point lay within 93 to 94 °C.

`Cc1cc(SCc2ccc(-c3ccc(C(F)(F)F)cc3)cc2)c(Cl)cc1OCC(=O)O` came in with a melting point of 161 to 162 °C.

`CCOC(=O)c1cc(OC)c2c(C)c(CCN(CC)CC)c(=O)oc2c1Br` registered a melting point of 150 to 151 °C.

Take `COC(=O)CCCc1cc2cc(Cl)ccc2n1S(=O)(=O)c1ccc2nc(C)oc2c1`: the melting point was 100 to 110 °C.

The compound `COC(=O)c1cc2cc(OCCn3ccnc3)ccc2s1` registered a melting point of 127 to 129 °C.

In turn, `CCOC(=O)N1CCN(c2ccncc2[N+](=O)[O-])CC1` returned a melting point of 101 to 103 °C.

In the case of `CC(C)(O)CC1NC(=O)c2ccccc21` (centres undefined), the melting point lay within 122 to 123 °C.

The compound `O=C(O)C(Cc1ccccc1)Oc1ccc(-c2ccc(-c3c(Cc4ccccc4)oc4cccnc34)cc2)cc1` (centres undefined) displayed a melting point of 85 to 88 °C.

For `COc1cc(C=CC(=O)CCCCCBr)cc(OC)c1`, the melting point is 73 to 76 °C.

`N#Cc1cnc2sc(Cl)cc2c1Nc1ccc2[nH]ccc2c1` had a melting point of 228 °C.

`COc1cc2c(cc1OC)NC(=O)CCC2` returned a melting point of 153 to 156 °C.

In turn, `CCCCCCCCCCCCCCCCCC(=O)NC(C)c1c[nH]c(CCCCCCCCCCCCCCCCC)n1` (centres undefined) registered a melting point of 76 to 82 °C.

Turning to `COc1ccccc1CNC(=O)c1oc(=O)c2ncccc2c1-c1ccc(C)cc1`, the melting point lay in the range of 189 to 190 °C.

`COc1ccc(CN2C(=O)[C@@H](Cl)[C@H]2[C@@H]2COC(C)(C)O2)c(OC)c1` yielded a melting point of 140 to 142 °C.

As to `CN(C(=O)CNC(=O)OC(C)(C)C)c1ccc(OCC(=O)O)cc1`, the melting point is 146 to 155 °C.

Consider `CC(=O)NCc1ccc(CN2CCN(c3nc(Cl)cc(Cl)n3)CC2)cc1`, for which the melting point fell in the range of 139 to 140 °C.

As for `CCOc1cccc(C(C)=O)n1`, the melting point lay within 36 to 37 °C.

On to `C=CCC1(Cc2nc[nH]c2C)CCc2c(C)c3ccccc3n2C1=O` (centres undefined), for which the melting point was 209 to 210 °C.

`COc1ccc(Br)cc1OC(=O)c1ccccc1`: the melting point was 73 to 75 °C.

Compound `CC(C)(C)OC(=O)N1CCN(c2nccs2)CC1` gave a melting point of 114 to 116 °C.

For `O=C1CCC(N2Cc3c(OCc4ccc(CN5CCc6ncccc6C5)cc4)cccc3C2=O)C(=O)N1` (centres undefined), the melting point lay within 163 to 165 °C.

As for `N#Cc1ccc(-c2ccc(-c3ccc(C#N)o3)o2)cc1`, the melting point lay in the range of 194 to 195 °C.

In turn, `NC(=O)c1cc([N+](=O)[O-])c(N2CC2)c([N+](=O)[O-])c1` yielded a melting point of 228 to 231 °C.

`CC(=O)OCCc1c(-c2ccccc2)nc(N)n2ncnc12`: the melting point is 181 to 182 °C.

`COc1ccc(NS(=O)(=O)c2ccc(N3CCC(NC[C@H](O)COc4cccc5[nH]c6ccccc6c45)CC3)cc2)cc1OC` displayed a melting point of 58 to 64 °C.

Regarding `CC(=O)[C@H]1C[C@@H](C(N)=S)N(C(=O)OCc2ccc([N+](=O)[O-])cc2)C1`, the melting point was 168 to 170 °C.

With `CC1(C)CS(=O)(=O)c2sc(S(N)(=O)=O)cc2C1O` (centres undefined), the melting point is 172 to 174 °C.

As for `COc1nc(SC)cc2cnc(-c3ccccc3)n12`, the melting point was 134 °C.

With `NS(=O)(=O)c1cc(C(=O)OCC(=O)N2CCC[C@@H]2CO[N+](=O)[O-])c(NCc2ccco2)cc1Cl`, the melting point lay in the range of 64 to 66 °C.

Turning to `Cc1nc2c(N)nc3ccccc3c2n1CCCNC(=O)C(C)C`, the melting point lay within 239 to 240 °C.

In turn, `Cn1nnc(-c2ccc(CNc3n[nH]c4ncnc(Nc5cccc(Cl)c5)c34)cc2)n1` displayed a melting point of 232 to 235 °C.

`O=C(NC(=O)c1c(F)cccc1Cl)Nc1ccc(S(=O)(=O)C(F)(F)C(F)F)cc1F` showed a melting point of 176 to 177 °C.

As to `Cc1c(CCl)ncn1S(=O)(=O)N(C)C`, the melting point was in the range of 115 to 118 °C.

In the case of `COc1cc(CCBr)cc2c1OCO2`, the melting point was 78 to 79 °C.

Broadly, the melting point is the temperature, or range, at which the solid turns liquid.
